Measured values published in patent publication US5965407A, “Anthracycline compound 0624” (Higeta Shoyu Co. Ltd., priority 1997, dated 1999).
In brackets after ≈: the same amount, converted by molar mass.

Assays:
L1210 cell line = test: Growth inhibition of L1210 cells (MTT assay); type: cell-based; settings: Mus musculus, L1210, 72 hours, 37° C.
Procedure: (§1) Cell suspensions were prepared (at 5.6×10^6 cells/ml) by using RPMI 1640 medium for L1210 cell line, RPMI 1640 medium containing 20 μM 2-mercaptoethanol (all the media containing 10% bovine serum) for P388 cell line and an adriamycin resistant P388 cell line, Eagle's MEM medium for KB cell line, and α-MEM medium for CHO cell line.
(§2) Test samples (0624-A and 0624-B) were individually dissolved in methanol and serially diluted with the individual media in a series of 2-fold dilution starting from a concentration of 0.1 mg/ml. The cell suspensions (each of 180 μl) and each test sample (20 μl) were divided in a 96-well microtiter plate, and subjected to culturing in wet atmosphere of 5% CO2 -95% air at 37° C. 72 hours after, cell growth was determined by the calorimetric assay using 3-(4, 5-dimethyl-z-thiazolyl)-2,5-diphenyl-2H-tetrazolium bromide (MTT). More specifically, 20 μl each of 2 mg/ml MTT solution was added into each well, followed by culturing at 37° C. for 4 hours. Then, 50 μl of 50 % dimethylformamide solution containing 20% sodium dodecyl sulfate was added to each well, which was left to stand. The resulting formed violet formazan crystal was solubilized and subjected to determination of absorbance at 570 nm, by using a microplate reader (Immunoreader), which was used as the indicator of growth. […]

P388 cell line = test: Growth inhibition of P388 cells (MTT assay); type: cell-based; settings: Mus musculus, P388, 72 hours, 37° C.
Procedure: as §1, §2

[1] = tested on: Adriamycin resistant P388 cell line; test: Growth inhibition of adriamycin resistant P388 cells (MTT assay); type: cell-based; settings: Mus musculus, Adriamycin resistant P388, 72 hours, 37° C.
Procedure: as §1, §2

KB cell line = test: Growth inhibition of KB cells (MTT assay); type: cell-based; settings: Homo sapiens, 72 hours, 37° C.
Procedure: as §1, §2

CHO cell line = test: Growth inhibition of CHO cells (MTT assay); type: cell-based; settings: Cricetulus griseus, 72 hours, 37° C.
Procedure: as §1, §2

[2] = tested on: cell lines L1210, P388, adriamycin resistant P388, KB and CHO; test: Growth inhibition of the tumor cell line panel (MTT assay), summary in words; type: cell-based
Procedure: as §1, §2

[3] = tested on: Micrococcus luteus IFM2066; test: Antimicrobial activity (MIC), Micrococcus luteus; type: cell-based; settings: Micrococcus luteus IFM2066, Muller-Hinton broth, 24 hours, 37° C.
Procedure: (§3) The antimicrobial activity of compound 0624 was confirmed through the assaying of the minimum growth inhibitory concentration (MIC).
(§4) The MICs of compound 0624 against various bacteria were determined in a Muller-Hinton broth (BBL) containing 0.2% glucose, according to the standard defined by the Japan Chemotherapy Association (The Essentials of Antibiotics, the 4-th edition, Tokyo University Press, 1992).
(§5) The test bacteria were adjusted to 1×10^8 cfu/ml in the broth, and then used as test bacteria solutions.
(§6) The test samples (compounds 0624-A and 0624-B) were, separately, dissolved in methanol and were then serially diluted with the broth in a series of 2-fold dilution, starting from a concentration of 0.1 mg/ml. Each test bacteria solution (180 μl) and each test sample (20 μl) were divided in a 96-well microtiter plate, and cultured at 37° C. After 24 hours, the MIC was observed and calculated by the eye, and the resulting MIC was defined as MIC value.

[4] = tested on: Staphylococcus aureus 209P; test: Antimicrobial activity (MIC), Staphylococcus aureus; type: cell-based; settings: Muller-Hinton broth, 24 hours, 37° C.
Procedure: as §3, §4, §5, §6

Bacillus subtilis PC1189 = test: Antimicrobial activity (MIC), Bacillus subtilis; type: cell-based; settings: Bacillus subtilis PC1189, Muller-Hinton broth, 24 hours, 37° C.
Procedure: as §3, §4, §5, §6

[5] = tested on: Nocardia transvalensis IFM0333; test: Antimicrobial activity (MIC), Nocardia transvalensis; type: cell-based; settings: Nocardia transvalensis IFM0333, Muller-Hinton broth, 24 hours, 37° C.
Procedure: as §3, §4, §5, §6

N. brasiliensis IFM0236 = test: Antimicrobial activity (MIC), N. brasiliensis; type: cell-based; settings: N. brasiliensis IFM0236, Muller-Hinton broth, 24 hours, 37° C.
Procedure: as §3, §4, §5, §6

[6] = tested on: N. otitidiscaviarum IFM0239; test: Antimicrobial activity (MIC), N. otitidiscaviarum; type: cell-based; settings: N. otitidiscaviarum IFM0239, Muller-Hinton broth, 24 hours, 37° C.
Procedure: as §3, §4, §5, §6

N. nova IFM0290 = test: Antimicrobial activity (MIC), N. nova; type: cell-based; settings: N. nova IFM0290, Muller-Hinton broth, 24 hours, 37° C.
Procedure: as §3, §4, §5, §6

N. asteroides IFM0319 = test: Antimicrobial activity (MIC), N. asteroides; type: cell-based; settings: Nocardia asteroides; N. asteroides IFM0319, Muller-Hinton broth, 24 hours, 37° C.
Procedure: as §3, §4, §5, §6

N. farcinica IFM0284 = test: Antimicrobial activity (MIC), N. farcinica; type: cell-based; settings: Nocardia farcinica; N. farcinica IFM0284, Muller-Hinton broth, 24 hours, 37° C.
Procedure: as §3, §4, §5, §6

[7] = tested on: Mycobacterium smegmatis ATCC607; test: Antimicrobial activity (MIC), Mycobacterium smegmatis; type: cell-based; settings: Mycolicibacterium smegmatis; Mycobacterium smegmatis ATCC607, Muller-Hinton broth, 24 hours, 37° C.
Procedure: as §3, §4, §5, §6

M. phlei ATCC11758 = test: Antimicrobial activity (MIC), M. phlei; type: cell-based; settings: Mycolicibacterium phlei; M. phlei ATCC11758, Muller-Hinton broth, 24 hours, 37° C.
Procedure: as §3, §4, §5, §6

M. flavescens ATCC14474 = test: Antimicrobial activity (MIC), M. flavescens; type: cell-based; settings: Mycolicibacterium flavescens; M. flavescens ATCC14474, Muller-Hinton broth, 24 hours, 37° C.
Procedure: as §3, §4, §5, §6

gram-positive bacteria = test: Antimicrobial activity, summary in words; type: cell-based; settings: gram-positive bacteria of Table 6
Procedure: as §3, §4, §5, §6

Solubility = type: physicochemical
[8] = in chloroform, ether and hexane
[9] = in water, methanol, ethanol, DMSO and ethyl acetate

Row | SMILES | IC50 (L1210 cell line) [µg/mL] | IC50 (P388 cell line) [µg/mL] | IC50 [1] [µg/mL] | IC50 (KB cell line) [µg/mL] | IC50 (CHO cell line) [µg/mL] | growth inhibitory activities against the cell lines [2] | MIC [3] [µg/mL] | MIC [4] [µg/mL] | MIC (Bacillus subtilis PC1189) [µg/mL] | MIC [5] [µg/mL] | MIC (N. brasiliensis IFM0236) [µg/mL] | MIC [6] [µg/mL] | MIC (N. nova IFM0290) [µg/mL] | MIC (N. asteroides IFM0319) [µg/mL] | MIC (N. farcinica IFM0284) [µg/mL] | MIC [7] [µg/mL] | MIC (M. phlei ATCC11758) [µg/mL] | MIC (M. flavescens ATCC14474) [µg/mL] | antimicrobial activity against gram-positive bacteria (gram-positive bacteria) | Solubility (Solubility; [8]) | also measured
1 | COc1ccc(O)c2c1C(=O)c1cc3c(c(O)c1C2=O)C(OC1CC(C)(N(C)C)C(O)C(C)O1)C(OC)C(C)(O)C3=O (stereo not drawn) [Compound 0624-A] | 0.15 (≈ 0.256 µM) | 0.47 (≈ 0.803 µM) | 0.97 (≈ 1.66 µM) | 1.06 (≈ 1.81 µM) | 12.3 (≈ 21 µM) | have the growth inhibitory activities | 1.56 (≈ 2.66 µM) | 3.13 (≈ 5.34 µM) | 6.25 (≈ 10.7 µM) | 3.13 (≈ 5.34 µM) | 6.25 (≈ 10.7 µM) | 1.56 (≈ 2.66 µM) | 0.78 (≈ 1.33 µM) | 1.56 (≈ 2.66 µM) | 3.13 (≈ 5.34 µM) | 1.56 (≈ 2.66 µM) | 0.78 (≈ 1.33 µM) | 3.13 (≈ 5.34 µM) | wide spectrum of antimicrobial activity | Insoluble | Solubility (Solubility; [9]): Soluble
2 | COc1ccc(O)c2c1C(=O)c1cc3c(c(O)c1C2=O)C(OC1CC(C)(N(C)C)C(OC(C)=O)C(C)O1)C(OC)C(C)(O)C3=O (stereo not drawn) [Compound 0624-B] | 0.18 (≈ 0.287 µM) | 0.59 (≈ 0.94 µM) | 1.05 (≈ 1.67 µM) | 1.32 (≈ 2.1 µM) | 18.6 (≈ 29.6 µM) | have the growth inhibitory activities | 12.5 (≈ 19.9 µM) | 100 (≈ 159 µM) | 3.13 (≈ 4.99 µM) | 6.25 (≈ 9.96 µM) | > 100 | > 100 | 1.56 (≈ 2.49 µM) | 3.13 (≈ 4.99 µM) | 12.5 (≈ 19.9 µM) | 3.13 (≈ 4.99 µM) | 3.13 (≈ 4.99 µM) | 12.5 (≈ 19.9 µM) | wide spectrum of antimicrobial activity | Insoluble | Solubility (Solubility; [9]): Soluble
